Measured values published in PMC11790914, “Chemogenomics for steroid hormone receptors (NR3)” (Communications Chemistry, 2025).
Where “and” joins values, the source holds several entries; their conditions need not be identical. Equal entries are not always repeated. Where two headings read alike, the source gives them in different places.

Key:
HEK293T cells [1] = experiment: Cytotoxicity: apoptosis induction (caspase-3/7 DEVD fluorogenic DNA dye); settings: 1 µM; HEK293T, 24 h; apoptotic cell count normalized to 0.1% DMSO; single replicates
Method: Cells were incubated with the test compounds at the indicated concentrations solubilized with 0.1% DMSO for 24 h. Growth-rate was determined based on the change in confluence over 24 h normalized to the change in confluence of cells treated with the 0.1% DMSO control (n = 10). Metabolic activity was determined with a water-soluble tetrazolium-8 (WST-8) assay (n = 8) after 24 h treatment. Apoptotic cells were detected with a fluorogenic DNA dye coupled to the caspase-3/7 recognition sequence (DEVD) after 24 h treatment and the apoptotic cell count was normalized to 0.1% DMSO treated cells (n = 6).
HEK293T cells (German Collection of Microorganisms and Cell Culture GmbH, DSMZ; #ACC305) were cultured in DMEM high glucose, supplemented with 10% fetal calf serum (FCS), sodium pyruvate (1 mM), penicillin (100 µ/mL) and streptomycin (100 µg/mL) at 37 °C and 5% (v/v) CO2, and seeded in pre-coated (10 µg/mL collagen G solution (Merck KgaA; #L7213) for 30 min at 37 °C) 96-well plates (2 × 10^5 cells per well). After 24 h, the cells were treated with the respective NR3 CG compound candidate at the recommended concentration, bexarotene (100 µM) or doxorubicin (30 µM) as positive controls in DMEM high glucose supplemented with 0.1% FCS, penicillin (100 µ/mL), streptomycin (100 µg/mL) and 0.1% DMSO, or 0.1% DMSO alone as an untreated control. Each sample was prepared in at least four biologically independent replicates. […] Thereafter, the medium was aspirated and the cells were incubated for 3 h with 90 µL DMEM high glucose supplemented with 0.2% FCS, penicillin (100 µ/mL) and streptomycin (100 µg/mL) and additionally containing 10 µL Cell Counting Kit 8 solution (CCK-8; MedChemExpress, Monmouth Junction, New York, USA; #HY-K0301), and absorbance was measured at 1 h, 2 h and 3 h of incubation at 450 nm on a Tecan Spark Cyto to assess metabolic activity of the cells. Before drug administration, after the first medium exchange, 24 h after drug administration, and after fluorescence imaging cell confluence was assessed using the Tecan Spark Cyto, to account for changes in cell confluence due to drug administration and cell handling. Compound effects on cell confluence, apoptosis, metabolic activity and necrosis were normalized to the vehicle control of each biological replicate individually.

MAPK1 = target: T1, MAPK1 (Homo sapiens, UniProt P28482); experiment: Liability panel screening by DSF: MAPK1; format: binding; settings: DSF, 20 µM, n=2; read-out: Mean ΔTM MAPK1
T1 construct: made in house
T1 sequence (P28482 whole entry, species assumed): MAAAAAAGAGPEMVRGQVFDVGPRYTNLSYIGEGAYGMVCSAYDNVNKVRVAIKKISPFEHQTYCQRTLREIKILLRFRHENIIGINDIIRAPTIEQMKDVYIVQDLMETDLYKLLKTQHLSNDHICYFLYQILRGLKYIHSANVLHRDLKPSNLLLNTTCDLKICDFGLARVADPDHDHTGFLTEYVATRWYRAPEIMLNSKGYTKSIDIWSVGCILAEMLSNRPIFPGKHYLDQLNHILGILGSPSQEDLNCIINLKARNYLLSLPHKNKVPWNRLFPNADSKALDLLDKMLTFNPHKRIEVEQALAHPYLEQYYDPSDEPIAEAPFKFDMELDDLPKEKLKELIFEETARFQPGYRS
Outline: (§1)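 Recombinant protein at 2 µM in 10 mM HEPES pH 7.5 with 500 mM NaCl was mixed with SYPRO Orange (1:1000) and heated at 3 °C/min up to 85 °C. Tm was taken as the Boltzmann-fit inflection point. Shifts are ∆Tm in K from technical duplicates.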

NR3C4 (AR) = settings: read-out: Potency [nM] IC50, NR3C4 (AR); cited from earlier work
FGFR3 = target: T2, FGFR3 (Homo sapiens, UniProt P22607); experiment: Liability panel screening by DSF: FGFR3; format: binding; settings: read-out: Mean ΔTM FGFR3
T2 construct: made in house
T2 sequence (P22607 23-806, species assumed): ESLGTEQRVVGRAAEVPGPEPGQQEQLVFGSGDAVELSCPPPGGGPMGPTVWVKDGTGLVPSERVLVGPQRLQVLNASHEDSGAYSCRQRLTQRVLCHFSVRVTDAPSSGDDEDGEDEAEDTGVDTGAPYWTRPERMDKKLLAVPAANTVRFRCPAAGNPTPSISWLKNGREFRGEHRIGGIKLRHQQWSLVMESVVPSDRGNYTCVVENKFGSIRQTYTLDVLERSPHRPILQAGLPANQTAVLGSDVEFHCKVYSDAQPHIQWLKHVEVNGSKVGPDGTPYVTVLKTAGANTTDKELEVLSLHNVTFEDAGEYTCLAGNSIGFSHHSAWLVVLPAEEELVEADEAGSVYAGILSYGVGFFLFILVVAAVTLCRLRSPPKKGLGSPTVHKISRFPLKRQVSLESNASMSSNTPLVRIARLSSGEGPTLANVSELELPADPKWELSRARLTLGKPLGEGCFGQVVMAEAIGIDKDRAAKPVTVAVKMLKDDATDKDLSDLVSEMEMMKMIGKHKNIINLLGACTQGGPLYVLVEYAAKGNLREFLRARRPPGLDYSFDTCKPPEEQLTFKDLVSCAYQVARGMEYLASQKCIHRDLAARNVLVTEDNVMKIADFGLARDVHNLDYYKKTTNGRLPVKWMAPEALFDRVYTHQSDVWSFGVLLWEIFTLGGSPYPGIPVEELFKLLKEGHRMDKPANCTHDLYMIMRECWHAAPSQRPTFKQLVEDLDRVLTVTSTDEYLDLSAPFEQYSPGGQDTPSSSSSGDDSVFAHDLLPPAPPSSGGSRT
Outline: as §1

ABL1 = target: T3, ABL1 (Homo sapiens, UniProt P00519); experiment: Liability panel screening by DSF: ABL1; format: binding; settings: read-out: Mean ΔTM ABL1
T3 construct: made in house
T3 sequence (P00519 whole entry, species assumed): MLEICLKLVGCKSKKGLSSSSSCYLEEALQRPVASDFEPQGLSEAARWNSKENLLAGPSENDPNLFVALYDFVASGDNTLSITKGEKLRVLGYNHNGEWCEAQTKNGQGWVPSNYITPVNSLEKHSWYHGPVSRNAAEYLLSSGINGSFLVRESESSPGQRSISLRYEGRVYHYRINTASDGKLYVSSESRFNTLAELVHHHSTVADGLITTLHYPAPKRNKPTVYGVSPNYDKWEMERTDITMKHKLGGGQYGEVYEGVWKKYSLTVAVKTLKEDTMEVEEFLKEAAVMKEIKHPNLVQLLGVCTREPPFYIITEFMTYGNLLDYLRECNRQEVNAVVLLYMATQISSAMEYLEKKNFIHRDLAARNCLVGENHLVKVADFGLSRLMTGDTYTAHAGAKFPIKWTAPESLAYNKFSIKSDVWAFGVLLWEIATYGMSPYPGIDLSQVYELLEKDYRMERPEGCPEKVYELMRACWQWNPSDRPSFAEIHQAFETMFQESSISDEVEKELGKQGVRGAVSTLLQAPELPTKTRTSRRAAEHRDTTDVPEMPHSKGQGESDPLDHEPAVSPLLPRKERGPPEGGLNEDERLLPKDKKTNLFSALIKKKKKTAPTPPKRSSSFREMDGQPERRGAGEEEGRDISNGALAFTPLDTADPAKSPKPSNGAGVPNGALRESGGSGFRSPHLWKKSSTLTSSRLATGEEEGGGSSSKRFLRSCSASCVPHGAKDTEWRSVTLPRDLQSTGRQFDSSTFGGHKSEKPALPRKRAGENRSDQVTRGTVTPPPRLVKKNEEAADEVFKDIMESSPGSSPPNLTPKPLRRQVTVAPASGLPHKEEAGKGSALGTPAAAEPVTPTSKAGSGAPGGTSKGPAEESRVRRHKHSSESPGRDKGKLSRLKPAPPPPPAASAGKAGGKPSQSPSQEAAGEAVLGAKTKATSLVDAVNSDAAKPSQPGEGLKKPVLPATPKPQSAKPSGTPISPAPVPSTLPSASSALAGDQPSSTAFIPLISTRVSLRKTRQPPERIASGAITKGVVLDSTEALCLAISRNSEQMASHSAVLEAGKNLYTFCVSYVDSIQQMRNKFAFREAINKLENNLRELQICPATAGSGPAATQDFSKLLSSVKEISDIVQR
Outline: as §1

Gal4-VP16 = format: cell-based; settings: 1 µM; vs. DMSO ctrl; single replicates n=1-3
Method: Five hours after transfection, the cells were incubated with the NR3 CG compound candidates at the recommended concentrations by changing the medium to Opti-MEM supplemented with penicillin (100 µ/mL) and streptomycin (100 µg/mL) additionally containing 0.1% DMSO and the respective test compound or 0.1% DMSO alone as untreated control. Firefly (reporter) and renilla (control) luminescence were measured after 14–16 h incubation using the Dual-Glo® Luciferase Assay System (Promega, Fitchburg, Wisconsin, USA; #E2980) according to manufacturer’s protocol on a Tecan Spark® 10M multimode microplate reader (Tecan Group AG, Männedorf, Switzerland). To obtain relative light units (RLU) firefly luminescence was divided by renilla luminescence and multiplied by 1000. Fold activation was obtained by dividing the mean RLU of a test sample by the mean RLU of the DMSO (0.1%) control. Experiments were performed in singlets in at least three biologically independent repeats.
are labeled according to their mode of action (yellow - agonist, grey - antagonist, grey with label D - degrader) and grouped by their
NR3 subfamily main targets.
reporter activity at the indicated concentrations expressed as mean fold reporter gene activity (n=3).

AURKA = target: T4, AURKA (Homo sapiens, UniProt O14965); experiment: Liability panel screening by DSF: AURKA; format: binding; settings: read-out: Mean ΔTM AURKA
T4 construct: made in house
T4 sequence (O14965 1-403): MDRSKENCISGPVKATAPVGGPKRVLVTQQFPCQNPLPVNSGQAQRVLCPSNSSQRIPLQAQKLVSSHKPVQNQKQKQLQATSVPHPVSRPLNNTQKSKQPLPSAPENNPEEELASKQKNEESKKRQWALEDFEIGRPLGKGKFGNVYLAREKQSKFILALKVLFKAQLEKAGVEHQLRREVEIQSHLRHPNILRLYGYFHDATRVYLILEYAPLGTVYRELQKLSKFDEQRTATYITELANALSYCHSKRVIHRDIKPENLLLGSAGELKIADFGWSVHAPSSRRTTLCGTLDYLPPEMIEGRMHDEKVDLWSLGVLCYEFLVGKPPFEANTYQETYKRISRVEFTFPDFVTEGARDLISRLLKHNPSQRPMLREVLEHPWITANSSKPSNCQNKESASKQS
Outline: as §1

CSNK1D = target: T5, CSNK1D (Homo sapiens, UniProt P48730); experiment: Liability panel screening by DSF: CSNK1D; format: binding; settings: read-out: Mean ΔTM CSNK1D
T5 construct: made in house
T5 sequence (P48730 whole entry, species assumed): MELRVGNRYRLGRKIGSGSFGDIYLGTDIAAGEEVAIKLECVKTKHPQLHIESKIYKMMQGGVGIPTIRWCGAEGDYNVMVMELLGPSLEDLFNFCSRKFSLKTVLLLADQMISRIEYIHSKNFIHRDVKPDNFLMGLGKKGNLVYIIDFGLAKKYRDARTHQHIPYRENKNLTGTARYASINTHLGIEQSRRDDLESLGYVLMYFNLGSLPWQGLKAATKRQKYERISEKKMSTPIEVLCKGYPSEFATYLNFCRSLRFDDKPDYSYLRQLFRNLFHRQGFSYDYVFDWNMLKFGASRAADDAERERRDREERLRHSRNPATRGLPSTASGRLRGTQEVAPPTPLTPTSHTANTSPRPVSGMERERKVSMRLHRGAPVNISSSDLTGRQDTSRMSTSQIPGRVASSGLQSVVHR
Outline: as §1

GSK3B = target: T6, GSK3B (Homo sapiens, UniProt P49841); experiment: Liability panel screening by DSF: GSK3B; format: binding; settings: read-out: Mean ΔTM GSK3B
T6 construct: made in house
T6 sequence (P49841 whole entry, species assumed): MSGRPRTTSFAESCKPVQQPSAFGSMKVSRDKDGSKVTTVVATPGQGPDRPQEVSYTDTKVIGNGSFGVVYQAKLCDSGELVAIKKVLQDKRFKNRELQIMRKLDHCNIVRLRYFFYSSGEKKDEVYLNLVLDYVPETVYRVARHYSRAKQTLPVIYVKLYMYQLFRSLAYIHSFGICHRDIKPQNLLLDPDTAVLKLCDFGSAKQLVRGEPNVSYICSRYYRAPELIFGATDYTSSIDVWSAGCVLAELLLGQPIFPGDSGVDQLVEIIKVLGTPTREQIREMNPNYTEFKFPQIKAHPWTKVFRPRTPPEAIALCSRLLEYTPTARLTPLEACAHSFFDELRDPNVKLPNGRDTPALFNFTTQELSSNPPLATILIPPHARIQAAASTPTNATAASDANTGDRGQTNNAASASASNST

BRPF1 = target: T7, BRPF1 (Homo sapiens, UniProt P55201); experiment: Liability panel screening by DSF: BRPF1; format: binding; settings: read-out: Mean ΔTM BRPF1
T7 construct: This panel comprised ten highly ligandable kinases and bromodomains; made in house
T7 sequence (P55201 628-732 limits assumed): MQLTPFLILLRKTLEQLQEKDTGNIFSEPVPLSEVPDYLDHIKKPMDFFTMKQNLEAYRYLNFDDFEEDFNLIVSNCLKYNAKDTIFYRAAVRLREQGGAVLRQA
Outline: as §1

HEK293T cells [2] = experiment: Cytotoxicity: necrosis induction (red fluorescent dye for permeable plasma membranes); format: cell-based; settings: 1 µM, 24 h, necrotic cell count normalized to 0.1% DMSO, single replicates;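 further: compounds applied in DMEM high glucose with 0.1% FCS and 0.1% DMSO, necrotic HEK293T cells counted by red staining of cells whose plasma membranes had become permeable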
[3] = test system: ATF6 activity in Hela ATF6 reporter cells; experiment: Endoplasmic reticulum stress assay (ATF6 Renilla luciferase reporter, tunicamycin); format: cell-based; settings: for activity at 1 µM: Homo sapiens, HeLa, single replicates n=1 to n=5, read-out: ER stress [rel. ATF6 activity]
Outline: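 HeLa ATF6 Renilla reporter cells were pretreated 4 h with compounds in 0.1% DMSO, then stimulated with tunicamycin (100 ng/mL) for 18 h. Renilla luminescence (DualGlo) was normalized to 0.1% DMSO control; five independent experiments.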

TRIM24 = target: T8, TRIM24 (Homo sapiens, UniProt O15164); experiment: Liability panel screening by DSF: TRIM24; format: binding; settings: read-out: Mean ΔTM TRIM24
T8 construct: This panel comprised ten highly ligandable kinases and bromodomains; made in house
T8 sequence (O15164 899-1004 limits assumed): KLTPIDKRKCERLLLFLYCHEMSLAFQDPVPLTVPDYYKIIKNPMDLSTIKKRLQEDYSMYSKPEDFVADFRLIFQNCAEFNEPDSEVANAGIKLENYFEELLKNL
Outline: as §1

BRD4 = target: T9, BRD4 (Homo sapiens, UniProt O60885); experiment: Liability panel screening by DSF: BRD4; format: binding; settings: read-out: Mean ΔTM BRD4
T9 construct: This panel comprised ten highly ligandable kinases and bromodomains; made in house
Outline: as §1

HEK293T cells [4] = experiment: Cytotoxicity: growth-rate (change in confluence over 24 h); settings: 1 µM, normalized to 0.1% DMSO control, single replicates (n=1...)
HEK293T cells [5] = experiment: Cytotoxicity: metabolic activity (WST-8 / CCK-8 assay); settings: 1 µM; HEK293T, 24 h; WST-8; normalized to 0.1% DMSO; single replicates
CDK2 = target: T10, CDK2 (Homo sapiens, UniProt P24941); experiment: Liability panel screening by DSF: CDK2; format: binding; settings: read-out: Mean ΔTM CDK2
T10 construct: made in house
Outline: as §1

[6] = test system: NF-κB activity in HEK293 NF-κB reporter cells; experiment: NF-kB activity assay (GFP reporter, ionomycin/PMA); format: cell-based; settings: for Mean NFκB response: n=3; for NF-κB activity (inflammatory response to ionomycin/PMA): HEK293 NF-κB reporter cells, compounds at recommended concentrations, imaged over 24 h, n = 3
Outline: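 HEK293 NF-κB GFP reporter cells given compound in 0.1% DMSO for 4 h, then stimulated with ionomycin 100 ng/mL plus PMA 10 ng/mL. Imaged every 90 min over 24 h; GFP-positive cell count normalized to confluence, three independent biological replicates.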

NR3A1 (ERα) = settings: of estradiol; cited from earlier work

| Structure (SMILES) | Apoptosis induction [AI] (HEK293T cells [1]) | Necrosis induction [NI] (HEK293T cells [2]) | activity at 1 µM [3] | Growth rate [GR] (HEK293T cells [4]) | Metabolic activity [MA] (HEK293T cells [5]) | Mean NFκB response ([6]; 1 µM, 1,5 h) | Mean NFκB response ([6]; 1 µM, 4,5 h) | Mean NFκB response ([6]; 1 µM, 7,5 h) | Mean NFκB response ([6]; 1 µM, 10,5 h) | Mean NFκB response ([6]; 1 µM, 13,5 h) | Mean NFκB response ([6]; 1 µM, 16,6 h) | Mean NFκB response ([6]; 1 µM, 19,5 h) | Mean NFκB response ([6]; 1 µM, 22,5 h) | Mean NFκB response ([6]; 1 µM, 3 h) | Mean NFκB response ([6]; 1 µM, 6 h) | Mean NFκB response ([6]; 1 µM, 9 h) | Mean NFκB response ([6]; 1 µM, 12 h) | Mean NFκB response ([6]; 1 µM, 15 h) | Mean NFκB response ([6]; 1 µM, 18 h) | Mean NFκB response ([6]; 1 µM, 21 h) | further results |
| --- | --- | --- | --- | --- | --- | --- | --- | --- | --- | --- | --- | --- | --- | --- | --- | --- | --- | --- | --- | --- | --- |
| N#Cc1ccc([C@H]2CCCC[C@H]2O)cc1C(F)(F)F [PF-998425] | 1.04 and 1.14 and 1.23 and 0.96 and 0.64 and 1.74 | 0.87 and 1.08 and 0.88 and 1.00 | 87% | 0.92 and 1.38 and 1.07 and 1.15 and 0.96 and 0.86 and 0.80 and 0.57 and 1.49 and 3.80 | 1.03 and 0.98 (3×) and 1.06 and 0.99 and 1.07 and 1.00 | 2870.31 GFP+-cells/confluence ∙ 1000 | 3725.32 GFP+-cells/confluence ∙ 1000 | 8899.00 GFP+-cells/confluence ∙ 1000 | 17651.00 GFP+-cells/confluence ∙ 1000 | 24472.33 GFP+-cells/confluence ∙ 1000 | 29696.67 GFP+-cells/confluence ∙ 1000 | 33323.33 GFP+-cells/confluence ∙ 1000 | 35466.67 GFP+-cells/confluence ∙ 1000 | 3247.46 GFP+-cells/confluence ∙ 1000 | 5028.67 GFP+-cells/confluence ∙ 1000 | 13977.00 GFP+-cells/confluence ∙ 1000 | 20998.00 GFP+-cells/confluence ∙ 1000 | 27073.33 GFP+-cells/confluence ∙ 1000 | 31376.67 GFP+-cells/confluence ∙ 1000 | 34843.33 GFP+-cells/confluence ∙ 1000 | ΔTm at 20 µM (MAPK1): -0.24 °C; IC50 (NR3C4 (AR)): 43 ± 12 nM; ΔTm at 20 µM (FGFR3; DSF, 20 µM, n=2): -0.09 °C; ΔTm at 20 µM (ABL1; DSF, 20 µM, n=2): 0.55 °C; VP16 control [fold reporter gene activity] (Gal4-VP16): 1.26 fold reporter gene activity and 1.19 fold reporter gene activity and 1.03 fold reporter gene activity; ΔTm at 20 µM (AURKA; DSF, 20 µM, n=2): -1.09 °C; ΔTm at 20 µM (CSNK1D; DSF, 20 µM, n=2): 0.3 °C; ΔTm at 20 µM (GSK3B; DSF, 20 µM, n=2): -0.43 °C; ΔTm at 20 µM (BRPF1; DSF, 20 µM, n=2): -0.66 °C; ΔTm at 20 µM (TRIM24; DSF, 20 µM, n=2): -1.04 °C; ΔTm at 20 µM (BRD4; DSF, 20 µM, n=2): -1.51 °C; ΔTm at 20 µM (CDK2; DSF, 20 µM, n=2): 0.11 °C; Mean NFκB response ([6]; 1 µM, 24 h): 36873.33 GFP+-cells/confluence ∙ 1000; NF-κB activity (inflammatory response to ionomycin/PMA) [6]: tended to enhance NF-κB activity |
| CCCc1c(-c2ccc(O)cc2)nn(-c2ccc(O)cc2)c1-c1ccc(O)cc1 [Propylpyrazoletriol] | 1.04 and 1.18 and 0.79 and 1.33 and 1.63 and 1.23 | 1.15 and 0.83 and 0.85 and 0.82 | 96% | 0.81 and 2.52 and 0.99 and 1.39 and 1.25 and 1.17 and 0.88 and 3.47 and 1.21 and 7.02 | 0.98 (2×) and 1.03 and 0.91 and 0.97 and 0.94 and 1.18 and 1.14 | 3210.54 GFP+-cells/confluence ∙ 1000 | 4272.75 GFP+-cells/confluence ∙ 1000 | 9949.66 GFP+-cells/confluence ∙ 1000 | 19765.59 GFP+-cells/confluence ∙ 1000 | 27110.00 GFP+-cells/confluence ∙ 1000 | 32836.67 GFP+-cells/confluence ∙ 1000 | 36663.33 GFP+-cells/confluence ∙ 1000 | 39666.67 GFP+-cells/confluence ∙ 1000 | 3501.92 GFP+-cells/confluence ∙ 1000 | 6059.91 GFP+-cells/confluence ∙ 1000 | 15582.73 GFP+-cells/confluence ∙ 1000 | 23751.78 GFP+-cells/confluence ∙ 1000 | 30496.67 GFP+-cells/confluence ∙ 1000 | 34710.00 GFP+-cells/confluence ∙ 1000 | 37963.33 GFP+-cells/confluence ∙ 1000 | ΔTm at 20 µM (FGFR3): -0.78 °C; ΔTm at 20 µM (ABL1): -0.07 °C; ΔTm at 20 µM (AURKA): 0.0212 °C; ΔTm at 20 µM (CSNK1D): 1.72 °C; ΔTm at 20 µM (GSK3B): 0.06 °C; ΔTm at 20 µM (BRPF1): -2.86 °C; ATF6 activity (tunicamycin-induced endoplasmic reticulum stress) ([3]; Hela ATF6 reporter cells, tunicamycin 100 ng/mL, 18 h, compounds at recommended concentrations, n = 5): failed to reduce ATF6 activity; ΔTm at 20 µM (TRIM24): -3.23 °C; rel. activity from literature, NR3A1 (ERα): % of estradiol (NR3A1 (ERα)): 120%; ΔTm at 20 µM (BRD4): -2.55 °C; ΔTm at 20 µM (CDK2): -2.26 °C; Mean NFκB response ([6]; 1 µM, 24 h): 40840.00 GFP+-cells/confluence ∙ 1000; NF-κB activity (inflammatory response to ionomycin/PMA) [6]: no impact on NF-κB activity |
